Measured values from US9120835B2, “Phosphoric acid ester derivatives” (Daiichi Sankyo Company Limited, priority 2011, dated 2015).

Key:
[1] = tested on: lymphocytes in the peripheral blood; experiment: Variation in number of lymphocytes in peripheral blood in rat; format: in vivo; conditions: male LEW/Crj rats, single oral gavage, suspension in 0.5% MC solution
Method: (§1) Male LEW/Crj rats at 3 or 6 weeks old were purchased from Charles River Laboratory Japan Inc. The rats were acclimatized for a week before the start of experiments. The rats were used for the experiments at 3 or 5 rats per one group. A necessary amount of a compound was weighed and suspended in a 0.5% MC solution by using a mortar and a muddler, or a homogenizer. A liquid for administration was prepared so as to be 5 mL per 1 kg body weight. The prepared solution was administered once by oral gavage. […] The blood was immediately put into a vacuum-sealed blood collection tube coated with an anticoagulant (EDTA-2K) (Nipro Corporation) and mixed. The sample was handled under room temperature condition until measurement. The number of the lymphocytes was measured by using an automatic hemacytometer (ADVIA120, Siemens Healthcare Diagnostics K. K.). At the time of blood collection, the thymus gland was also excised.

S1P lyase = biological target: T1, S1P lyase (Rattus norvegicus, UniProt Q8CHN6); experiment: S1P lyase inhibitory ability in rat (thymus gland extract after oral administration); format: in vivo; conditions: thymus gland extract of orally dosed rats, [3H]dhS1P substrate, 37° C. for 1 hour
T1 construct: The excised thymus gland was crushed; from tissue; host or cells: thymus gland of male LEW/Crj rats (extract supernatant)
T1 sequence (Q8CHN6 1-568): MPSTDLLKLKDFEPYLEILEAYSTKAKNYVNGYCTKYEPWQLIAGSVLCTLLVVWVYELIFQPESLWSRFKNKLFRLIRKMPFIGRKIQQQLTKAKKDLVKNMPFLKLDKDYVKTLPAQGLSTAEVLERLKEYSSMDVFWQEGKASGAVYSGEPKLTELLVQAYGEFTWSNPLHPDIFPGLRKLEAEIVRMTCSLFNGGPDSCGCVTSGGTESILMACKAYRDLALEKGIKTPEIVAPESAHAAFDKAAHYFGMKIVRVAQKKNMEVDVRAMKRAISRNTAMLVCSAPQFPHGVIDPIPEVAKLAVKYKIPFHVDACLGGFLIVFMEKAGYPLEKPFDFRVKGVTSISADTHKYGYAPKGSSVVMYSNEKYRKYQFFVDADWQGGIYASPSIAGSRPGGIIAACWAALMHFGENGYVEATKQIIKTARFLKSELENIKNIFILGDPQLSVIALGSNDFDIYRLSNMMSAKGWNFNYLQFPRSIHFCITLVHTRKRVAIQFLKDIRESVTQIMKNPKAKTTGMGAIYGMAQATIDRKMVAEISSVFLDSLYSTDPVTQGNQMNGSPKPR
Method: as §1, with “At the time of blood collection, the thymus gland was also excised.” left out
The excised thymus gland was crushed by either a method including using zirconia beads in the presence of a homogenize buffer (50 mM HEPES-NaOH (pH=7.4), 0.15 M NaCl, 10% Glycerol, 1 mM EDTA, 1 mM DTT and complete protease inhibitor cocktail (Roche, #4693132)) or a method including chopping up the thymus gland and thereafter using a Potter-Elvehjem homogenizer. […] The protein amount in the supernatant was quantified by the Bradford method, and the supernatant was flash-freezed with liquid nitrogen and then stored at −80° C. […]

| SMILES | number of lymphocytes in the peripheral blood [1] | S1P lyase activity in the thymus gland (S1P lyase) |
| --- | --- | --- |
| CC(=O)c1nc(COP(=O)(O)O)c[nH]1 [Example 1, Phosphoric acid mono-(2-acetyl-1H-imidazol-4-ylmethyl) ester and phosphoric acid mono-(2-acetyl-3H-imidazol-4-ylmethyl) ester] | reduced the number of lymphocytes in the peripheral blood | decreased SIP lyase activity in the thymus gland |
| CC(=O)c1nc(COP(=O)(O)O)c(C)[nH]1 [Example 2, Phosphoric acid mono-(2-acetyl-5-methyl-1H-imidazol-4-ylmethyl) ester and phosphoric acid mono-(2-acetyl-5-methyl-3H-imidazol-4-ylmethyl) ester] | reduced the number of lymphocytes in the peripheral blood | decreased SIP lyase activity in the thymus gland |
| O=P(O)(O)OCc1c[nH]c(-c2ccon2)n1 [Example 4, Phosphoric acid mono-(2-isoxazol-3-yl-1H-imidazol-4-ylmethyl) ester and phosphoric acid mono-(2-isoxazol-3-yl-3H-imidazol-4-ylmethyl) ester] | reduced the number of lymphocytes in the peripheral blood |  |
